Data on one compound can be found in patent US20160235677A1, “METHOD OF CONVERTING A CRYSTALLINE COMPOUND TO AN AMORPHOUS COMPOUND, METHOD OF INCREASING THE SOLUBILITY OF A CRYSTALLINE COMPOUND IN A BIORELEVANT FLUID, AND NANOPARTICLES THAT ACHIEVE SUPERSATURATION” (Nanocopoeia, LLC., priority 2014, published 2016).

Values after ≈ are worked out from the molar mass of the structure shown. Where two headings read alike, the source gives them in different places.

A short description of data set [1]: Caco-2 Monolayer Test Method. The format is in vitro ADME. To be noted: human; Caco-2 monolayers, apical to basolateral, powder equivalent to 200 μg GF in 1 mL buffer pH 7.4, 2 h. Here is the method:
Caco-2 monolayers are prepared in Millipore 96-cell Caco-2 plates and are used after a 3-week differentiation period. The monolayers separate the apical, or donor well, from the basolateral, or recipient well. The buffer used for the apical side is 1.98 g/L glucose in 10 mM HEPES, Hank's Balanced Salt Solution (HBSS) lx, with calcium, magnesium, without phenol red (HyClone, Logan, Utah) pH 7.4. The impermeable dye Lucifer yellow (in an amount of 100 μM) is added to test monolayer integrity. The basolateral side buffer is buffer, pH 7.4, without dye. […] The amount of test powder is selected to assure that if the powder was completely dissolved, the amount is sufficient to achieve ˜12 to 13 times the saturation concentration of the compound of interest previously measured in HBSS (15 μg/mL), in other words, a supersaturated solution. […] Where the compound of interest is not a substrate for p-glycoprotein (pGP), B→A efflux is not measured.
Buffer test samples are added to apical wells at 1 h after preparation and buffer alone is added to the basolateral side. […] The plates are assumed to be intact if there is no increase in fluorescence from leaking Lucifer yellow dye from the apical side. Individual cell monolayers are assumed intact if there is no increase in fluorescence in aliquots taken from the basolateral wells. […]

Data set [2] can be described thus: Dissolution in Biorelevant Medium Using Non-Sink Condition (griseofulvin powders in FaSSIF). The format is physicochemical. Particulars: GF dissolution in FaSSIF, 5 hour experiment. Here is the method:
A modified low-volume shaker flask method is used to assess the dissolution behavior of samples under supersaturated conditions. A 75 mL aliquot of FaSSIF, adjusted to pH 6.5, is added to each of six 150 mL Erlenmeyer flasks, which are then stoppered. The liquid is then heated to and maintained at 37° C.±1° C. using a benchtop incubated orbital shaker with a multi position stir plate (Forma Scientific 4520, Thermo Fisher Scientific, Waltham, Mass.). A 38 mm×9 mm stir bar is placed in each flask and stirring is started at 150 rotations per minute (RPM). A control sample, containing the compound of interest, and experimental samples are added to separate flasks in amounts sufficient to provide an amount of the compound of interest equivalent to the control sample. At each of 5 min, 15 min, 20 min, 30 min, 45 min, 60 min, 120 min, 240 min, and 300 min, 3 mL of dissolution media is removed from each flask, and immediately filtered through a 13 mm, 0.2 μm nylon filter with glass prefilter (EMD Millipore, Billerica, Mass.) after first discarding the first 2 mL of the sample. […]
The HPLC analysis is performed using an Ace C18, 2.1×150 mm, 3 μm chromatographic column maintained at 30° C. […] Quantification is performed based on linear calibration curve ranging from 10 ng/mL to 1000 ng/mL using peak response ratio.
For the Dissolution in Biorelevant Medium Using Non-Sink Condition analysis, a 24 mg sample of Control 1, i.e., griseofulvin powder, and an amount of Examples 1-7 sufficient to provide an amount of griseofulvin equivalent to the amount of Control 1, i.e., 24 mg, was added to each flask. Quantification was performed based on linear calibration curve ranging from 10 to 1000 ng/mL using peak response ratio. […]
Dry powder produced as describe above in Examples 8-11 was evaluated in the biorelevant medium FaSSIF, comparing ENS-processed powders with physical mixtures at similar ratios of GF:SP. […]

Data set [3] in a line: X-Ray Powder Diffraction (XRD) crystallinity / physical state. In kind it is physicochemical. Particulars: griseofulvin materials, result in words. Here is the method: X-ray powder diffraction is performed at room temperature using a Bruker D8 Discover using a Cu Kα radiation, point source filtered with a graphite monochromator and a Bruker Hi-Star two-dimensional x-ray detector (Bruker, Karlsruhe, Germany). Powder samples are pressed onto a sample holder made of single-crystal quartz cut off-axis. The reflected intensity is collected at 0.04° resolution from 2Θ=2° to 62° with an acquisition time of 20 minutes. Data analysis is performed using the JADE 8.0 software package (Materials Data Inc., Livermore, Calif.) with whole pattern fitting. The test method has a detection limit of 2% crystallinity. […]

Data set [4] is described as follows: Equilibrium / saturation solubility in test media. To be noted: GF, previously measured. In kind it is physicochemical.
Where [5] appears, read: non-sink, 24 mg GF equivalent in 75 mL, 37° C.

For the compound `COC1=CC(=O)C[C@@H](C)[C@]12Oc1c(Cl)c(OC)cc(OC)c1C2=O` [Control 1, (+)-griseofulvin], the apical-to-basolateral permeability (Papp A→B) (as a rule, the apparent permeability from the apical to the basolateral side of a cell layer) at 2 h, 200 μg/mL in data set [1] came to 28 ± 2.5 ×10⁻⁶ cm/s. In data set [2] (setting [5]), the highest concentration (Cmax) (commonly the maximum level reached in the sampled fluid or tissue) was 18300 ng/mL and the time to peak (Tmax) (in general, the time from dosing to the highest level) turned out to be 30 min. For the same compound, in data set [2] (area under the concentration-time curve), the AUC was 5,202. In data set [3], the “physical state by XRD” value was “completely crystalline material”. Further, in data set [4] (HBSS, saline or isotonic, read-out: saturation concentration in HBSS), the solubility thermodynamic is 15 µg/mL (≈ 42.5 µM). Also, the solubility thermodynamic in data set [4] (water, thermodynamic from solid, read-out: equilibrium solubility in water) is 6 to 10 µg/mL (≈ 17 to 28.3 µM).
